Reference: a melting point compilation (Tetko et al.; mined from patent text by program, amines drawn as free bases though some values may be those of a salt)

| SMILES | melting point [°C] |
| --- | --- |
| CC(=O)OC1CC2=CC(=O)C3C4CCC(C(C)CCCC(C)C)C4(C)CCC3C2(C)C(OC(C)=O)C1 (stereo not given) | 121 to 122 |
| O=C(NCCCCN1CCC(c2ccc3c(c2)OCO3)CC1)c1ccc(NC(=O)c2ccc(Cl)cc2)cc1 | 238 to 248 |
| COC(=O)CCc1cc2cc(Cl)c(Cl)cc2n1S(=O)(=O)c1ccccc1 | 280 |
| OC(CNCc1ccccc1)COc1ccc(CCOCC2CC2)cc1 (stereo not given) | 75 to 76 |
| CCCCCCOc1ccc(C2OCC(C(=O)O)CO2)cc1 (stereo not given) | 30 |
| Cc1ccn(-c2ccc(Cl)c(Cl)c2)n1 | 46 to 47 |
| Fc1ccc(C(c2ccccc2)(c2ccccc2)n2ccnc2)cc1 | 146 |
| O=C(O)COc1cc2cc(C3CCCCC3)sc2c(Cl)c1Cl | 167 to 168 |
| O=Cc1c[nH]c(Cc2ccccc2)n1 | 130 to 136 |
| c1ccc2c3c(cnc2c1)OCCN3 | 175 to 176 |
| CC(=O)Nc1cccc(C(C)(C)O)c1CO | 138 |
| N#Cc1ccccc1-c1ccc(CN2C(=O)C3(COc4cc5c(cc43)CCO5)c3ccccc32)cc1 (stereo not given) | 192 to 194 |
| COc1cc(OC)nc(C(O)(C(=O)NS(C)(=O)=O)c2ccccc2)n1 (stereo not given) | 94 to 96 |
| CCOC(=O)c1ccc(C(=O)Nc2ccc3c(c2)N(C)C(=O)C(C)(C)C(=O)N3C)cc1 | > 270 |
| Cn1ccnc1Sc1ccc(Cl)cc1[N+](=O)[O-] | 143 to 145 |
| O=C(O)CN1C(=O)C(=CC=Cc2cccc(-c3ccccc3)c2)SC1=S | 232 to 237 |
| O=C1NCC(Cc2ccccc2C(F)(F)F)O1 (stereo not given) | 142 to 143 |
| CCOC(=O)c1c(O)cc(C(F)(F)F)nc1C(F)(F)F | 70 to 77 |
| O=C(O)c1oc(=O)c2ccc(Cl)cc2c1-c1ccccc1 | 206 to 208 |
| CN(C)CCCCOc1ccc(-c2nnc(CSCCOc3ccccc3)o2)cc1 | 62 to 63 |
| CC1(c2cc(-c3ccc(F)cc3F)cc(C(=O)Nc3ccc(S(=O)(=O)C(F)(F)F)cc3Cl)c2O)CCCCC1 | 114 to 115 |
| COc1ccc(C(CC(=O)O)N2C(=O)c3cccc([N+](=O)[O-])c3C2=O)cc1 (stereo not given) | 178 to 180 |
| COc1cc(Cl)cc(CC(O)CO)c1OCc1ccccc1 (stereo not given) | 65 to 68 |
| Brc1ccc(N2CCC3(CCNCC3)CC2)nc1 | 103 to 105 |
| CC(=O)c1ccc(C2CCCC2)cc1 | 100 to 102 |

| SMILES | melting point [°C] |
| --- | --- |
| Cc1cc(C(=O)Nc2ccc3cc(CN4CCCC4)cnc3c2C)ccc1-c1ccc(F)cc1 | 200 to 202 |
| CCn1c2s[nH]c(=O)c2c(=O)c2cc(F)c(F)c(OC(F)F)c21 | 211 to 213 |
| COC(=O)CCCOc1ccccc1I | 66.5 to 67 |
| Cc1cc(-c2nc3cccnn3c2-c2ccnc(NC(=O)c3ccc(OC(F)(F)F)cc3)c2)ccc1F | 225 to 226 |
| COC(=O)c1ccc(Oc2ccc(N)cc2C(=O)OC)cc1 | 144 to 146 |
| C=S1c2ccccc2N(CCN2CCOCC2)C(=O)C1c1ccc(Cl)cc1 (stereo not given) | 169 to 173 |
| CCN(CCOC)C(=O)c1cc(-c2ccccc2)c(=O)[nH]c1-c1c(Cl)cccc1C#N | 184 to 186 |
| CS(=O)(=O)Cc1ccc(C(=NN)c2ccc(Cl)cc2)cc1 | 52 to 54 |
| CC(=O)c1c[nH]c(-c2ccncc2)c1C | 210 to 211 |
| CCN(CC)CCOc1ccc2c(c1)C(=O)c1ccc(OCCN(CC)CC)cc1C2=O | 169 to 170 |
| COc1cc(C#N)ccc1C(=O)Nc1cc(Cl)c(Cl)cc1N | > 250 |
| CC1SC(=O)NN=C1c1ccc2c(c1)C(=NN(C)c1ccccc1)C(=O)N2 (stereo not given) | 260 |
| CN(C)C1CCc2c(c3ccccc3n2CCC(=O)O)C1 (stereo not given) | 106 to 108 |
| O=C(c1ccc(Cl)cc1)c1ccc([N+](=O)[O-])cc1Cl | 117 to 118 |
| COc1cc(C=CC(=O)c2ccccc2)ccc1O | 87 to 88 |
| CC(=O)NCC1CNC(=O)O1 (stereo not given) | 138 |
| CC(CC(=O)Nc1c(Cl)ccc2nc(CCCNCCCO)ccc12)c1ccccc1 (stereo not given) | 118 to 120 |
| Cn1c(COc2ccc(CC3SC(=O)N(C(c4ccccc4)(c4ccccc4)c4ccccc4)C3=O)cc2)cc2ccccc21 (stereo not given) | 134 to 136 |
| CN(CCOc1ccc(CC(OCC(F)(F)F)C(=O)O)cc1)c1nc2ccccc2o1 (stereo not given) | 116 to 117 |
| Cc1ccccc1-c1nn(C(C)(C)C(=O)N(C)C)cc1C | 145 to 147 |
| COC(=O)c1cccc(N2CC(C)=CC2=O)c1 | 87 to 89 |
| CCCOc1nc2sccc2c(=N)n1CCC | 61 to 63 |
| C#Cc1ccc2c(c1)C=C(C(=O)O)C(C(F)(F)F)N2 (stereo not given) | 259 to 268 |
| COC(=O)c1ccc(Cc2c[nH]c3ccc([N+](=O)[O-])cc23)c(OC)c1 | 153 to 155 |
| O=C(OCc1ccccc1)C1C(Sc2ccccc2)CC2CC(=O)N21 (stereo not given) | 84 to 85 |

| SMILES | melting point [°C] |
| --- | --- |
| O=C(OCC1CCC1)c1ncc2n1-c1cccc(Br)c1C(=O)N1CCC[C@@H]21 | 170 to 172 |
| O=c1[nH]c2cc(O)ccc2n1CCN1CCN(c2cccc(C(F)(F)F)c2)CC1 | 275 |
| CC(C)(C)[Si](C)(C)OCc1cc(-c2ccc3nc(Cl)cn3c2)cs1 | 100 to 104 |
| COc1cc2c(cc1OC)CN(c1c(C)c(C)c3c(c1C)C(c1ccc(C(C)C)cc1)C(C)(C)O3)C2 (stereo not given) | 153 to 155 |
| COC(=O)c1cc(OCc2ccc(OCc3nc(-c4ccccc4)oc3C)c(OC)c2)nn1-c1ccccc1 | 143 to 144 |
| COc1cc(N)c(Cl)cc1C(=O)NC1CCN(CCCC2(C)NC(=O)NC2=O)CC1OC (stereo not given) | 236 |
| O=C(O)C1C=CCn2c(=O)n(CCCl)c(=O)n21 (stereo not given) | 150 to 151 |
| CSc1c(O[C@H]2CC[C@@H](N3C(=O)c4ccccc4C3=O)CC2)ccc2[nH]ncc12 | 211 to 212 |
| COC(=O)c1cc(OC)c(O)cc1[N+](=O)[O-] | 101 to 102 |
| COc1ccccc1-n1c(=O)[nH]c2c(C(N)=O)nc(-c3cccc(OC(F)(F)F)c3)nc21 | 269 to 272 |
| Clc1nc(-c2ccccc2)cc2ccccc12 | 75 to 77 |
| CN1C(=O)C(C(=O)Nc2ccc(OC(F)(F)F)c(Cl)c2)C(=O)N(C)C1=O | 160 |
| CC(C)c1ccc2c(c1)OCc1ccc(C(=O)O)cc1C2=O | 203 to 204 |
| NNC(=O)C(F)(F)C(F)(F)C(F)(F)F | 138 to 142 |
| Cc1cc2nc(C)c(S(=O)Cc3ccccc3N(C)C)nc2cc1C (stereo not given) | 83 to 88 |
| COCCn1nc(-c2sc(N)nc2-c2ccccc2)ccc1=O | 208 to 210 |
| CC(=O)Nc1ccc(S(=O)(=O)NCc2noc(-c3c4ccccc4nn3CCn3ccnc3)n2)cc1 | 160 to 161 |
| COC(=O)c1c(Cc2ccc(S(=O)(=O)N3CCN(C)CC3)cc2)c(=O)c2ccccc2n1-c1ccccc1 | 210 to 212 |
| O=C(NCCCOc1ccncc1)c1cccs1 | 123 to 125 |
| Nc1cc(OC(F)(F)C(F)Cl)c(OC(F)(F)C(F)Cl)cc1N (stereo not given) | 58 to 60 |
| Oc1cc(Cl)ccc1Oc1ccccc1-c1ncon1 | 124 to 125 |
| CCOC(=O)c1cnc2cc([N+](=O)[O-])ccc2n1 | 221 to 223 |
| CCOc1ccc(-c2nc(Cn3cccc3C(C)=O)cs2)cc1OCC | 123 to 124 |
| CCCc1ccc(-n2ncc(C#N)c2NC(C)=O)c(Cl)c1 | 143 to 144 |
| COc1ccc(C(=O)Nc2ccc3ccc(Oc4c(C)cccc4C)nc3n2)cc1 | 174 |

| SMILES | melting point [°C] |
| --- | --- |
| CCC(=O)N1N=C(c2ccc(N)c(C)c2)c2cc3c(cc2C[C@@H]1C)OCO3 | 176 to 178 |
| N#Cc1ccc(Sc2ccc3cc(Br)ccc3c2)cc1C(F)(F)F | 114 to 116 |
| O=C(O)C1=C(c2cccs2)c2cc(Cl)ccc2OC1C(F)(F)F (stereo not given) | 201 to 207 |
| CCCCSC(=S)N1Cc2[nH]c3ccccc3c2CC1CO (stereo not given) | 60 to 63 |
| O=C(NCC1CCOCC1)Nc1ccc(C(F)(F)F)cc1 | 148 to 149 |
| CCOC(=O)c1cnc2c([N+](=O)[O-])c(Cl)c(F)cc2c1O | 226 to 228 |
| Cc1cc(-c2noc(C(F)(F)F)n2)cc(C)c1OCCCc1ccc(CO)nc1 | 92 to 94 |
| CN(C)C(=NC(=O)C(O)(C(N)=O)c1ccc(Cl)c(Cl)c1)N(C)C (stereo not given) | 98 to 100 |
| O=[N+]([O-])c1cc(Cl)c(Oc2ccccc2)c(Cl)c1Oc1ccccc1 | 164 |
| NCCOC(c1ccccc1)(c1ccccc1)c1ccccc1 | 87 to 89 |
| CCOC(=O)C(C)(C)c1ccc(CCNC(=O)c2ccc(Cl)cc2)cc1 | 108 to 109 |
| CCc1oc2ccccc2c1C(=O)NCc1ccc2c(Br)c(OCC#N)ccc2c1 | 181 to 183 |
| O=C1Cc2cccc(Oc3ccccc3)c2O1 | 60 to 61 |
| COc1ccc(OCc2ccccc2)c2[nH]c(C)c(C)c12 | 76 |
| N#CCCCSc1nccc(NC(=S)NCC(F)(F)F)n1 | 125 to 126 |
| CC(=O)S[C@H]1CO[C@@H](c2ccccc2)OC1 | 94 to 95 |
| C[C@H](C(=O)O)c1ccc2cc(OCCCCCCc3cccc(OCc4ccccc4)c3OCc3ccccc3)ccc2c1 | 66 to 70 |
| CN(CCCNC(=O)c1c(Cl)ccc2nc3ccccc3nc12)CCCNC(=O)c1c(Cl)ccc2nc3ccccc3nc12 | 206 to 207 |
| CCc1cc(COc2nn(Cc3ccccc3)cc2CO)ccc1OCc1nc(-c2ccco2)oc1C | 116 to 117 |
| N#CN1CCC(=C2c3ccccc3Oc3ccc(Cl)cc32)CC1 | 148 to 150 |
| CCCCc1cnc(-c2ccc(N=C=O)cc2)nc1 | 48 |
| Cc1sc(-c2ccccc2)nc1COc1ccc(Cn2cc(CC(=O)O)c(-c3ccccc3)n2)cn1 | 140 to 141 |
| CCN1C(=O)C(C)(C)C(=O)N(C)c2cc(CN(CCn3ccc4oc(C)cc4c3=O)Cc3cnccn3)ccc21 | 129 to 131 |
| CCCCCCCCS(=O)Cc1c(C)c(O)c(C)c(CS(=O)CCCCCCCC)c1C (stereo not given) | 175 |
| CCOc1nc2ccccc2nc1N(CC)C(=O)N1CCN(c2cc(C)cc(C)c2)CC1 | 142 to 144 |
